Reference: patent publication US20110009351A1, “SCREENING ASSAY TO IDENTIFY CORRECTORS OF PROTEIN TRAFFICKING DEFECTS” (Traffick Therepeutics Inc., priority 2007, published 2011)
Where a name gives a salt, the structure may show the parent alone.

Assays:
[1] = molecular target: ΔF508-CFTR (Homo sapiens, UniProt P13569, DEL508-508); assay type: cell-based; parameters: which was then ligated into full length pNUT-CFTR linearized using Hpa1 and Pml1; expressed in transfected cells; details: Prestwick library, initial corrector assay; for hit in screen (class letter): BHK cells; for hit in screen (score): standard deviations above untreated controls
ΔF508-CFTR, sequence (P13569 with tags, fused parts or gaps DEL508-508): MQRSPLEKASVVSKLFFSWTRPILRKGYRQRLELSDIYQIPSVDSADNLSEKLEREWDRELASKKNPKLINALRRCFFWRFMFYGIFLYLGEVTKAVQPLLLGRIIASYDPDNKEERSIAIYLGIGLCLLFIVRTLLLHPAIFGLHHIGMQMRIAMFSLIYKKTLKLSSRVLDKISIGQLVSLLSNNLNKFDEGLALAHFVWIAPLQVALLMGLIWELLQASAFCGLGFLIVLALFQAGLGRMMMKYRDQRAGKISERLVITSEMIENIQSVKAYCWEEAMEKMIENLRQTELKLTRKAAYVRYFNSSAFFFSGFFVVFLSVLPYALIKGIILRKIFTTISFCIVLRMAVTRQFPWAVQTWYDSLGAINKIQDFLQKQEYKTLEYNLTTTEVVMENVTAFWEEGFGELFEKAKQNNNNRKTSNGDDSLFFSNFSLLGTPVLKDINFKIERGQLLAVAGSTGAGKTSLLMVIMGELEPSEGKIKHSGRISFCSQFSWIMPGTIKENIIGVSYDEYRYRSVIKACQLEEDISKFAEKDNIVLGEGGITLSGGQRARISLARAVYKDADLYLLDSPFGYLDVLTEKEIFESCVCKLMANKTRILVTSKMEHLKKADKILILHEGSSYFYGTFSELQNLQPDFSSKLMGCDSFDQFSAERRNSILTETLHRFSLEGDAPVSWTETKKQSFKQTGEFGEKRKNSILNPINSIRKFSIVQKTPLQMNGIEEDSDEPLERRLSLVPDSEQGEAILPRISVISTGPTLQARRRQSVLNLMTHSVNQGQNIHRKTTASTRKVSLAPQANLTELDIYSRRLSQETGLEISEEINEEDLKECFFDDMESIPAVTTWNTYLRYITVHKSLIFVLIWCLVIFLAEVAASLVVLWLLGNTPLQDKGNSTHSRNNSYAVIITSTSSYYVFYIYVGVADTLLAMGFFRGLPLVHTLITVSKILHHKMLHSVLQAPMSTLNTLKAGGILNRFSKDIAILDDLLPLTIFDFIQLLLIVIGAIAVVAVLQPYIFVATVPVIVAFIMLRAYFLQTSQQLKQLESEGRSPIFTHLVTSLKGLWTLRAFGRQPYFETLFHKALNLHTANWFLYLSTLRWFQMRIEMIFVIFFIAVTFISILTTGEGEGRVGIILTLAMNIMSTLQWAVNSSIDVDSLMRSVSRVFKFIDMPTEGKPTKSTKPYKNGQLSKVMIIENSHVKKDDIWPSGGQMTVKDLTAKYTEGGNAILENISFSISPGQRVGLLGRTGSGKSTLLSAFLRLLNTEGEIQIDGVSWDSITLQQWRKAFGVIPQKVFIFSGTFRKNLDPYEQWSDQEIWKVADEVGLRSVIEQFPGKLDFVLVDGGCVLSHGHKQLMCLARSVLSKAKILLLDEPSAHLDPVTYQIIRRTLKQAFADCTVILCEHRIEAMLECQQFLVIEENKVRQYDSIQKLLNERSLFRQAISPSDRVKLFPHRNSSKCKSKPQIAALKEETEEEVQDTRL
Method: BHK cells expressing 3HA-tagged ΔF508-CFTR between passages 5-8 were seeded in 96-well plates (Corning half area, black-sided, clear bottom) at 15,000 cells per well and incubated with culture medium for 24 h at 37° C. Each well was then treated with a different test compound (80 compounds per plate) for 24 h at 20 μM final concentration. The remaining 16 wells on each plate were used for control conditions. […] Cells were fixed in a 4% paraformaldehyde solution, washed with PBS, and blocked with PBS containing 5% fetal bovine serum (FBS) for 1 hat 4° C.
Blocking solution was replaced with 15 μl of primary antibody solution containing 1% FBS and mouse monoclonal anti-HA antibody (1:150 dilution, Sigma) in PBS. The plates were sealed and left at 4° C. overnight. After three washes with 100 μl PBS, cells were incubated for 1 h with 15 μl of secondary antibody solution containing 1% FBS and anti-mouse IgG conjugated with FITC (1:100 dilution, Sigma) in PBS. Cells were again washed three times with 100 μl of PBS and analyzed in a plate reader (Analyst™ HT96.384, Biosystems; 488 nm excitation/510 nm emission). […] The mean fluorescence of four untreated wells was used as the background signal when calculating deviations of the 80 compound-treated wells. Hits were then cherry-picked into reservoir plates and re-tested in duplicate using the same assay.
BHK cells expressing ΔF508-CFTR were incubated with test compounds (20 μM) for 24 hours at 37° C. in a 96 well format. Plasma membrane expression of ΔF508-CFTR was then assayed by immunofluorescence using a primary antibody directed against the inserted 3HA tag and a secondary antibody conjugated with a fluorophore (FITC). […] The positive compounds were selected and retested in duplicate to obtain an N of 3. At the re-screening stage, the intrinsic fluorescence of each potential hit was also measured and the fluorescent ones were not considered further.
Screening was performed using BHK cells that stably express F508-CFTR bearing three tandem haemagglutinin-epitope tags (3HA) and linker sequences in the fourth extracellular loop after amino acid 901 (Howard et al., 1995; Carlile et al., 2007; Robert et al., 2008). […] Screening was performed using the Prestwick Chemical Library of 1120 high-purity compounds.

[2] = molecular target: T1, F508del CFTR (Homo sapiens, UniProt P13569, DEL508-508); assay: YFP fluorescence quenching functional assay (iodide influx), HEK293 cells with F508del CFTR and halide sensitive YFP; assay type: cell-based; details: 10 μM, 24 h, nc = 100% pc = 69.2; for remaining activity at 10 µM: HEK293, read-out: % YFP quench
T1 construct: expressed in transfected cells; host or cells: HEK293 Griptite cells stably expressing F508del CFTR, transiently transfected with halide-sensitive eYFP
T1 sequence (P13569 with tags, fused parts or gaps DEL508-508): as above
Method: In addition to the MDS compounds, the 1120 Prestwick Library compounds were screened. (See FIGS. 7 to 12.) Of the compounds, one qualified as a “strong” hit, 3 as “medium” hits and 57 as “weak” hits. The Z score for the assay was 0.62. The top 50 hits were further tested in a counter screen in which the halide sensitive fluorescent compound (YFP) was expressed inside cells (Table 2). After incubation with the test compounds the ability of the cells to uptake iodide was measure by decreasing YFP fluorescence. In these cells this can only occur if functional CFTR is present at the cell surface (FIG. 7). The hits were also tested for the appearance of the Band C form of CFTR. […] The functionality of the compounds was further studied by the use of Iodide efflux assays for each compound in both BHK and the more physiologically relevant CFBE cells. […] FIG. 10 is a table of results for the 15 hit compounds which summarizes many experiments. […] The results for the best 15 compounds from the Prestwick Library, or “Prestwick 15”, are shown FIGS. 8, 9 and 10.
Strongly adhesive Human […] Kidney cells stably expressing both the human macrophage scavenger receptor (HEK293 Griptite, Invitrogen) and F508del CFTR were plated in 96-well plates and transiently transfected with pcDNA3 plasmid encoding a halide sensitive variant of eYFP. After 24-48 h later cells were exposed to 10 μM test compound in triplicate and incubated for an additional 24 h. Cells were stimulated for 20 minutes with a in a buffer containing 25 μM forskolin, 45 μM IBMX and 50 μM genistein final concentration. The high content screening assay was performed using a Cellomics platform. Iodide was added robotically to a final concentration of 50 mM and the resulting decrease in fluorescence was measured. Images were taken at time 0 and stored for subsequent use when calculating a mask so that only those cells that express YFP at time 0 are measured. The quenching was detected in 15 images taken over the course of an experiment lasting 40 seconds. Each test compound was compared to the following two controls: a negative control without drugs to assess photobleaching that may occur when the same field of view is repeatedly imaged, and a positive control with cells treated with a known potentiator. Results were generated from 150-300 cells per well.

## Terbutaline hemisulfate
[1]
  hit in screen (class letter): W (Medium and weak hits were defined as compounds giving a cell fluorescence signal that was between 2 and 3 or 1 and 2 standard deviations, respectively, above untreated control wells)
  hit in screen (score): 1.3
[2]
  % YFP quench: 100%

## Cytisine (−)
[1]
  hit in screen (class letter): M (Medium and weak hits were defined as compounds giving a cell fluorescence signal that was between 2 and 3 or 1 and 2 standard deviations, respectively, above untreated control wells)
  hit in screen (score): 2.0
[2]
  % YFP quench: 97%

## O=C([O-])c1ccccc1-c1c2cc(Br)c(=O)cc-2oc2[c]([Hg+])c([O-])c(Br)cc12.[Na+].[Na+].[OH-] [Merbromin]
[1]
  hit in screen (class letter): S (strong hits were initially identified as those compounds giving a cell fluorescence signal that was ≧3 standard deviations (SD) above untreated control wells)
  hit in screen (score): 3.6
[2]
  % YFP quench: 107%

## Cc1scc2c1N(C(=O)CN1CCN(C)CC1)c1ccccc1NC2=O [Telenzepine dihydrochloride]
[1]
  hit in screen (class letter): W (Medium and weak hits were defined as compounds giving a cell fluorescence signal that was between 2 and 3 or 1 and 2 standard deviations, respectively, above untreated control wells)
  hit in screen (score): 1.3
[2]
  remaining activity at 10 µM: 85%

## Nc1ncnc2c1ncn2[C@@H]1O[C@H](COP(=O)(O)O)[C@@H](O)[C@H]1O.O [Adenosine 5′-monophosphate monohydrate]
[1]
  hit in screen (class letter): W (Medium and weak hits were defined as compounds giving a cell fluorescence signal that was between 2 and 3 or 1 and 2 standard deviations, respectively, above untreated control wells)
  hit in screen (score): 1.1
[2]
  remaining activity at 10 µM: 78%

## Cc1cc(N)c2ccccc2[n+]1CCCCCCCCCC[n+]1c(C)cc(N)c2ccccc21.[Cl-].[Cl-] [Dequalinlum dichloride]
[1]
  hit in screen (class letter): M (Medium and weak hits were defined as compounds giving a cell fluorescence signal that was between 2 and 3 or 1 and 2 standard deviations, respectively, above untreated control wells)
  hit in screen (score): 2.2
[2]
  % YFP quench: 102%

## CC[C@@H](CO)NC(=O)[C@@H]1C=C2c3cccc4[nH]cc(c34)C[C@H]2N(C)C1 [Methylergometrine maleate]
[1]
  hit in screen (class letter): W (Medium and weak hits were defined as compounds giving a cell fluorescence signal that was between 2 and 3 or 1 and 2 standard deviations, respectively, above untreated control wells)
  hit in screen (score): 1.1
[2]
  remaining activity at 10 µM: 94%

## CC(=O)c1ccc(S(=O)(=O)NC(=O)NC2CCCCC2)cc1 [Acetohexamide]
[1]
  hit in screen (class letter): W (Medium and weak hits were defined as compounds giving a cell fluorescence signal that was between 2 and 3 or 1 and 2 standard deviations, respectively, above untreated control wells)
  hit in screen (score): 1.0
[2]
  remaining activity at 10 µM: 88%

## CCN(CC)C(=O)N1CCN(C)CC1 [Diethylcarbamazine citrate]
[1]
  hit in screen (class letter): W (Medium and weak hits were defined as compounds giving a cell fluorescence signal that was between 2 and 3 or 1 and 2 standard deviations, respectively, above untreated control wells)
  hit in screen (score): 1.2
[2]
  remaining activity at 10 µM: 907%

## N[C@H]1CONC1=O [(S)-(−)-Cycloserine]
[1]
  hit in screen (class letter): W (Medium and weak hits were defined as compounds giving a cell fluorescence signal that was between 2 and 3 or 1 and 2 standard deviations, respectively, above untreated control wells)
  hit in screen (score): 1.4
[2]
  % YFP quench: 98%

## C#CCN(C)CCCOc1ccc(Cl)cc1Cl [Clorgyline hydrochloride]
[1]
  hit in screen (class letter): W (Medium and weak hits were defined as compounds giving a cell fluorescence signal that was between 2 and 3 or 1 and 2 standard deviations, respectively, above untreated control wells)
  hit in screen (score): 1.0
[2]
  remaining activity at 10 µM: 77%
